Test results taken from patent US20230076527A1, “TREATMENT OF PAROXYSMAL NOCTURNAL HEMOGLOBINURIA” (Apellis Pharmaceuticals, Inc., priority 2020, published 2023).

Tests used:
PNH Type II + III RBCs = experiment: PEGASUS pharmacodynamics: C3 loading and clone size of PNH red blood cells; type: in vivo, human; conditions: week 16 versus baseline
Excerpt: FIGS. 9B and 9C includes descriptive analysis of observed values, based only on those subjects who had both baseline and week 16 data.

patients with PNH [1] = experiment: PEGASUS quality of life assessments (LASA, EORTC QLQ-C30); type: in vivo, human
Protocol: QoL assessments were Linear Analog Scale Assessment (LASA) and the European Organisation for Research and Treatment of Cancer Quality of Life Questionnaire-Core 30 Scale (EORTC QLQ-C30) scores. Change from baseline (CFB) to week 16 was analyzed using a mixed model for repeated measures. The LASA consists of 3 sections asking respondents to rate their perceived level of functioning and contains specific domains for activity level, ability to carry out daily activities, and overall QoL. Each section of the LASA is scored from low of 0 to high of 100 and asks patients to rate different aspects of their life over the past week; section 1 asks patients to rate their energy level, section 2 their ability to do daily activities, section 3 their overall quality of life. Scores for the 3 individual components of the scale and the combined score were included in the analysis. The EORTC contains 30 questions comprising 5 functional scale scores and individual items; it asks patients to answer 28 questions on a scale of 1 (“not at all”) to 4 (“very much”) that generally focus on the past week of their life. An additional 2 questions are rated on a scale of 1 (“very poor”) to 7 (“excellent”) for overall health and quality of life over the past week.

patients with PNH [2] = experiment: PEGASUS post hoc hematologic response categorization; type: in vivo, human; conditions: 16 weeks
Excerpt: Complete response: no transfusions required, stable Hb in the normal range, and no evidence of hemolysis (i.e., LDH ≤1.5× upper limit of normal [ULN], ARC ≤150,000 /µL). Major response: no transfusion, normal Hb, but with evidence of hemolysis (LDH >1.5×ULN and/or ARC >150,000 /µL). Good response: no transfusion, but with chronic mild anemia or evidence of hemolysis. Partial response: chronic moderate anemia and/or occasional transfusions (<3 units/6 months). Minor response: regular transfusions required (3-6 units/6 months). No response: regular and frequent transfusions required (>6 units/6 months).

patients with PNH [3] = experiment: PEGASUS 48-week efficacy results (open-label period); type: in vivo, human
Protocol: Day 1 to Week 16 was defined as the Randomized Controlled Period, over which endpoints were assessed. After completion of the Randomized Controlled Period (the end of Week 16), all subjects continue into a 32-week Open-Label Study Drug Period in which all subjects receive twice-weekly doses of Study Drug (1,080 mg). During this period, subjects return to the clinical site on Weeks 17, 18, 20, 22 and 24 and every 4 weeks, thereafter, until Week 48 for efficacy and safety assessments.

[4] = system: patients with PNH previously treated with eculizumab; experiment: Matching-adjusted indirect comparison of pegcetacoplan (PEGASUS) versus ravulizumab (302 study); type: in vivo, human; conditions: PEGASUS Week 16 vs 302 study Week 26, after matching
Excerpt: Both studies share similar eligibility criteria. However, PEGASUS also required patients to have hemoglobin <10.5 g/dL and absolute reticulocyte count >1.0x the upper limit of normal; these criteria were not applicable in the 302 study. To adjust for cross-study differences in baseline characteristics, propensity score weighting was utilized to balance baseline demographic and clinical characteristics. Outcomes assessed included: transfusion avoidance, total number of units of packed red blood cells (PRBCs) transfused, hemoglobin stabilization, and change in Functional Assessment of Chronic Illness Therapy (FACIT)-Fatigue score. Outcomes were assessed from PEGASUS at Week 16 and from the 302 study at Week 26. Unadjusted mean and least squares mean change in FACIT-Fatigue score were compared for PEGASUS and the 302 study, respectively. Weighted Wald tests and 95% confidence intervals (CIs) were computed for comparisons of categorical and continuous outcomes (i.e., chi square and z tests, respectively).

patients with PNH [5] = experiment: PEGASUS 48-week safety; conditions: 48-week study
patients with PNH [6] = experiment: PEGASUS safety, 16-week randomized controlled period
Protocol: Pharmacokinetics and pharmacodynamics were also assessed, including change from baseline in percentage of PNH Type II + III RBCs at week 16, and change from baseline in percentage of PNH Type II + III RBCs opsonized with C3 at week 16. Incidence and severity of treatment-emergent adverse events (TEAEs), incidence of thromboembolic events, changes from baseline in laboratory parameters, and changes from baseline in electrocardiogram (ECG) parameters were also assessed.
The primary endpoint was assessed on ITT set (included all subjects who were randomized), and change from Baseline to Week 16 in Hb level was measured. […] Safety Analysis was conducted in the safety set (which included all subjects who were randomized and received at least 1 dose of monotherapy Study Drug).
Subjects were divided into various sets. The Run-in Set included all subjects who received at least one dose of APL-2. The Intent-to-Treat (ITT) Set included all subjects who were randomized. The analyses using this set was based upon the randomized treatment group allocated. The Safety Set included all subjects who were randomized and received at least 1 dose of monotherapy Study Drug. This set was used for safety analyses. The analyses using this set were based upon the actual treatment received. The Modified ITT (mITT) Set included all subjects in the ITT set who received at least one dose of monotherapy beyond their Week 4 after randomization in the Randomized Controlled Period. The analyses using this set were based upon the randomized treatment group allocated. […] Subjects were required to receive their randomized treatment to be included in the set and so analyses using this set were by default based upon the actual treatment group allocated. The Completer Set consisted of all subjects in the ITT set who completed the Week 16 efficacy assessment for the study. The analyses using this set were based upon the randomized treatment group allocated.

[7] = change from baseline at week 16, ITT
[8] = change from baseline at week 16, ITT, listed as Pegcetacoplan
[9] = week 16, ITT, negative = improvement
[10] = 16-week randomized, controlled treatment period

For “Poly(oxy-1,2-ethanediyl), α-hydro-ω-hydroxy-, 15,15ʹ -diester with N-acetyl-L-isoleucyl-L-cysteinyl-L-valyl-1-methyl-L-tryptophyl-L-glutaminyl-L-α-aspartyl-L-tryptophylglycyl-L-alanyl-L-histidyl-L-arginyl-L-cysteinyl-L-threonyl-2-[2-(2-aminoethoxy)ethoxy]acetyl-N^6-carboxy-L-lysinamide cyclic (2-->12)-(disulfide) [pegcetacoplan]”, the “C3 loading on Type III RBCs” value (PNH Type II + III RBCs) was “decreased”, the “PNH clone size (Type II + III)” value (PNH Type II + III RBCs) was “increased” and the “Appetite loss, Difference (95% CI) in LS mean, pegcetacoplan vs eculizumab” value (patients with PNH [1]; [7]) was -8.0 (-23.2, 7.3). For the same substance, the “Cognitive functioning, Difference (95% CI) in LS mean, pegcetacoplan vs eculizumab” value (patients with PNH [1]; [7]) was 9.6 (-4.5, 23.6), the “Constipation, Difference (95% CI) in LS mean, pegcetacoplan vs eculizumab” value (patients with PNH [1]; [7]) was 1.8 (-15.7, 19.3) and the “Diarrhea, Difference (95% CI) in LS mean, pegcetacoplan vs eculizumab” value (patients with PNH [1]; [7]) was -1.4 (-19.3, 16.5). The “Dyspnea, Difference (95% CI) in LS mean, pegcetacoplan vs eculizumab” value (patients with PNH [1]; [7]) was -14.6, the “Emotional functioning, Difference (95% CI) in LS mean, pegcetacoplan vs eculizumab” value (patients with PNH [1]; [7]) was 4.1 (-11.6, 19.8) and the “Fatigue symptom scale, Difference (95% CI) in LS mean, pegcetacoplan vs eculizumab” value (patients with PNH [1]; [7]) was -20.7. For the same substance, the “Financial difficulties, Difference (95% CI) in LS mean, pegcetacoplan vs eculizumab” value (patients with PNH [1]; [7]) was -7.4 (-21.8, 7.0), the “Global Health Status/QoL, Difference (95% CI) in LS mean, pegcetacoplan vs eculizumab” value (patients with PNH [1]; [7]) was 18.6 (0.1, 37.1) and the “Insomnia, Difference (95% CI) in LS mean, pegcetacoplan vs eculizumab” value (patients with PNH [1]; [7]) was 0.3 (-15.7, 16.3). For the same substance, the “Nausea and vomiting, Difference (95% CI) in LS mean, pegcetacoplan vs eculizumab” value (patients with PNH [1]; [7]) was -0.0 (-8.4, 8.4), the “Pain, Difference (95% CI) in LS mean, pegcetacoplan vs eculizumab” value (patients with PNH [1]; [7]) was -2.8 (-20.4, 14.9) and the “Physical functioning, Difference (95% CI) in LS mean, pegcetacoplan vs eculizumab” value (patients with PNH [1]; [7]) was 12.9 (4.9, 20.9). The “Role functioning, Difference (95% CI) in LS mean, pegcetacoplan vs eculizumab” value (patients with PNH [1]; [7]) was 24.4 (8.8, 40.0), the “Social functioning, Difference (95% CI) in LS mean, pegcetacoplan vs eculizumab” value (patients with PNH [1]; [7]) was 11.3 (-2.4, 24.9) and the “LASA score, Difference (95% CI) in LS mean, pegcetacoplan vs eculizumab” value (patients with PNH [1]; change from baseline at week 16, ITT, censored for transfusion) was 59.10. The “LASA score, Difference (95% CI) in LS mean, pegcetacoplan vs eculizumab” value (patients with PNH [1]; change from baseline at week 16, ITT, censored for transfusion, listed as Pegcetacoplan) was 59.1 (16.9, 101.3), the “Dyspnea, Difference (95% CI) in LS mean, pegcetacoplan vs eculizumab” value (patients with PNH [1]; [8]) was -14.6 (-29.9, 0.8) and the “Fatigue symptom scale, Difference (95% CI) in LS mean, pegcetacoplan vs eculizumab” value (patients with PNH [1]; [8]) was -20.7 (-35.3, -6.2). The “EORTC QLQ-C30 Cognitive functioning, LS mean (SE) change from baseline” value (patients with PNH [1]; week 16, ITT) was 5.8 (3.3), the “EORTC QLQ-C30 Emotional functioning, LS mean (SE) change from baseline” value (patients with PNH [1]; week 16, ITT) was 8.0 (3.4) and the “EORTC QLQ-C30 Global Health Status/QoL, LS mean (SE) change from baseline” value (patients with PNH [1]; week 16, ITT) was 15.9 (3.6). For the same substance, the “EORTC QLQ-C30 Physical functioning, LS mean (SE) change from baseline” value (patients with PNH [1]; week 16, ITT) was 16.9 (2.1), the “EORTC QLQ-C30 Role functioning, LS mean (SE) change from baseline” value (patients with PNH [1]; week 16, ITT) was 15.4 (3.9) and the “EORTC QLQ-C30 Social functioning, LS mean (SE) change from baseline” value (patients with PNH [1]; week 16, ITT) was 15.1 (2.9). The “LASA score, LS mean (SE) change from baseline” value (patients with PNH [1]; week 16, ITT, censored for transfusion) was 49.4 (10.2), the “EORTC QLQ-C30 Appetite loss, LS mean (SE) change from baseline” value (patients with PNH [1]; [9]) was -3.8 (3.4) and the “EORTC QLQ-C30 Constipation, LS mean (SE) change from baseline” value (patients with PNH [1]; [9]) was 3.0 (3.2). The “EORTC QLQ-C30 Diarrhea, LS mean (SE) change from baseline” value (patients with PNH [1]; [9]) was 0.3 (3.7), the “EORTC QLQ-C30 Dyspnea, LS mean (SE) change from baseline” value (patients with PNH [1]; [9]) was -20.1 (3.5) and the “EORTC QLQ-C30 Fatigue symptom scale, LS mean (SE) change from baseline” value (patients with PNH [1]; [9]) was -22.9 (3.3). For the same substance, the “EORTC QLQ-C30 Financial difficulties, LS mean (SE) change from baseline” value (patients with PNH [1]; [9]) was -6.8 (3.9), the “EORTC QLQ-C30 Insomnia, LS mean (SE) change from baseline” value (patients with PNH [1]; [9]) was -9.2 (4.0) and the “EORTC QLQ-C30 Nausea and vomiting, LS mean (SE) change from baseline” value (patients with PNH [1]; [9]) was -0.3 (1.6). For the same substance, the “EORTC QLQ-C30 Pain, LS mean (SE) change from baseline” value (patients with PNH [1]; [9]) was -0.7 (4.3), the complete hematologic responses (patients with PNH [2]; ITT) was 39% and the good hematologic responses (patients with PNH [2]; ITT) was 31.7%. The minor hematologic responses (patients with PNH [2]; ITT) was 4.9%, the no hematologic response (patients with PNH [2]; ITT) was 0% and the partial hematologic responses (patients with PNH [2]; ITT) was 14.6%. The “patients achieving at least a good hematological response” value (patients with PNH [2]; 29/41 pegcetacoplan, 2/39 eculizumab) was 70.7%, the “hemoglobin, mean improvement from baseline” value (patients with PNH [3]; Week 48) was 2.7 g/dL and the “patients who remained transfusion free” value (patients with PNH [3]; throughout the 48-week study) was 73%. For the same substance, the “hemoglobin, mean increase from baseline as stated in Example 3” value (patients with PNH [3]; week 16) was 2.7 g/dL, the “comparative effectiveness versus ravulizumab (MAIC, anchored on eculizumab)” value [4] was “improvement in transfusion avoidance, hemoglobin stabilization, and fatigue, and a reduction in the total number of units of PRBCs transfused” and the cases of meningitis (patients with PNH [5]) was “No cases”. For the same substance, the diarrhea (patients with PNH [5]) was 21%, the “discontinuations due to hemolysis” value (patients with PNH [5]) was “five” and the “hemolysis (adverse event)” value (patients with PNH [5]) was 24%. The injection site reactions (patients with PNH [5]) was 36%, the “patients who experienced a serious adverse event” value (patients with PNH [5]; 24 of 80 pegcetacoplan monotherapy-treated patients) was 30% and the deaths (patients with PNH [5]; due to COVID-19, unrelated to study treatment) was “One death”. The “SAEs assessed to be possibly related to study treatment” value (patients with PNH [5]; five of the SAEs) was 6%, the “patients who discontinued due to adverse events” value (patients with PNH [5]; twelve out of 80 patients) was 15% and the “LDH increase in subjects discontinuing due to hemolysis” value (patients with PNH [6]; 3 subjects of the pegcetacoplan group) was 3-11 × ULN. The “hemolysis (adverse event)” value (patients with PNH [6]; 16-week period, four patients pegcetacoplan, nine patients eculizumab) was 9.8%, the “patients who experienced a serious adverse event” value (patients with PNH [6]; 16-week period, seven of 41 pegcetacoplan, 6 of 39 eculizumab) was 17.1% and the “Abdominal Pain (adverse event)” value (patients with PNH [6]; 16-week randomized period) was 5 (12.2) n(%). The “Any TEAE” value (patients with PNH [6]; 16-week randomized period) was 36 (87.8) n(%), the “Back Pain (adverse event)” value (patients with PNH [6]; 16-week randomized period) was 3 (7.3) n(%) and the “Diarrhea (adverse event)” value (patients with PNH [6]; 16-week randomized period) was 9 (22.0) n(%). For the same substance, the “Discontinuations due to AE” value (patients with PNH [6]; 16-week randomized period) was 3 (7.3) n(%), the “Dizziness (adverse event)” value (patients with PNH [6]; 16-week randomized period) was 1 (2.4) n(%) and the “Headache (adverse event)” value (patients with PNH [6]; 16-week randomized period) was 3 (7.3) n(%). The Meningitis (patients with PNH [6]; 16-week randomized period) was 0 n(%), the “Serious AE” value (patients with PNH [6]; 16-week randomized period) was 7 (17.1) n(%) and the cases of meningitis (patients with PNH [6]; 16-week randomized period) was “No cases”. The deaths (patients with PNH [6]; 16-week randomized period) was “no deaths”, the “fatigue (adverse event)” value (patients with PNH [6]; 16-week randomized period) was 2 (4.9) n(%) and the “hemolysis (adverse event)” value (patients with PNH [6]; 16-week randomized period) was 4 (9.8) n(%). For the same substance, the “injection site reactions” value (patients with PNH [6]; 16-week randomized period) was 15 (35.6) n(%), the tolerability (patients with PNH [6]; 16-week randomized period) was “generally well tolerated” and the diarrhea (patients with PNH [6]; [10]) was 22.0%. The “fatigue (adverse event)” value (patients with PNH [6]; [10]) was 4.9%, the headache (patients with PNH [6]; [10]) was 7.3% and the injection site reactions (patients with PNH [6]; [10]) was 36.6%. The “Adverse Events as primary reason for withdrawal from study treatment (all reported as hemolysis)” value (patients with PNH [6]; through week 16) was 3 (7.3) n (%).
